Experimental findings from patent publication US8835440B2, “Cyclic pyrimidin-4-carboxamides as CCR2 receptor antagonists for treatment of inflammation, asthma and COPD” (Boehringer Ingelheim International GmbH, priority 2008, dated 2014) are described below.

For the experiment, the target named is T1, CCR2 (Homo sapiens, UniProt P41597).
T1 construct: Membranes were prepared from THP-1 cells; endogenous in cells; host or cells: THP-1 cells (membrane preparation)
T1 sequence (P41597 1-360 isoform P41597-2): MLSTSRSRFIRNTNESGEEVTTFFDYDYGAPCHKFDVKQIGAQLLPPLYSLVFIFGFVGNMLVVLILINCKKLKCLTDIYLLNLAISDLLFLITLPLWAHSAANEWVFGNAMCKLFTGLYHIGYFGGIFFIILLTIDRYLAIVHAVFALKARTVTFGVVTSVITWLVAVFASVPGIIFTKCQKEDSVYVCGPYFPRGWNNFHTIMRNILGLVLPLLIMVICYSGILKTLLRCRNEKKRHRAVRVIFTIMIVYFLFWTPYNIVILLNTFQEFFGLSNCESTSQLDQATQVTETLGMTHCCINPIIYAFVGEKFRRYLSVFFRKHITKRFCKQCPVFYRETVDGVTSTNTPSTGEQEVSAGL
The experiment is described as follows: CCR2 receptor membrane binding assay ([125I]MCP-1, THP-1 cell membranes, SPA beads). Particulars: for remaining activity at 10 µM: @ 10 μM test compound, THP-1 membranes, read-out: CCR2 % ctrl @ 10 μM; for Ki: dissociation constant hKi, [125I]MCP-1 binding to THP-1 membranes. In a few lines:
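Human THP-1 monocytic cell membranes, pre-coupled to WGA-PVT SPA beads, were incubated with compound and [125I]MCP-1 (ca. 25000 cpm) in 25 mM HEPES pH 7.2, 5 mM MgCl2, 0.5 mM CaCl2, 0.2% BSA, at 1% DMSO final. Bound radioactivity was counted after 8 h, and Ki was obtained by iterative mass-action fitting.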

Molecules are shown by their SMILES.

As usually defined, the Ki is a measure of affinity in units of concentration, obtained from inhibition or displacement. Regarding `COC1COCCC1N(C)C1CCN(C(=O)c2ncnc(NCC3CCC[C@@H](c4ccccc4)C3)c2C)CC1` (stereo partly drawn) [Example 228h], the remaining activity at 10 µM was determined as 0% and the affinity, expressed as Ki, was 5 nM.

`CC(=O)NC1CCN(C2CCN(C(=O)c3ncnc(NCCc4ccc(Cl)c(Cl)c4)c3C)CC2)CC1` [Example 171]: the remaining activity at 10 µM was found to be 16% and the Ki was found to be 356 nM.

The molecule `COc1nc(OCC2CCCC(c3ccccc3)C2)c(C)c(C(=O)N2CCC(N3CCC(N(C)S(C)(=O)=O)CC3)CC2)n1` (stereo not drawn) [Example 302] yielded a Ki of 32 nM.

On to `Cc1nc(NCc2ccc(C(C)(C)C)cc2)c(C)c(C(=O)N2CCC(N3CC[C@@H](C(N)=O)C3)CC2)n1` [Example 267], for which the remaining activity at 10 µM was 20% and the Ki was 487 nM.

In turn, `CNC(=O)C1CCN(C2CCN(C(=O)c3ncnc(NC[C@H]4CCC[C@@H](c5ccccc5)C4)c3C)CC2)CC1` [Example 159p] displayed a Ki of 7 nM.

`Cc1c(NCc2ccc(C(C)(C)C)cc2)ncnc1C(=O)N1CCC(N2CCC(Cc3cccnc3)C2)CC1` (stereo not drawn) [Example 228gf] had a Ki of 145 nM.

For `Cc1c(C(=O)N2CCC(N3CCC(N(C)S(C)(=O)=O)CC3)CC2)ncnc1-c1ccc(C(C)(C)C)cc1` [Example 289], the remaining activity at 10 µM was determined as 34% and affinity was put at a Ki of 1670 nM.

In the case of `Cc1ccc(COc2ncnc(C(=O)N3CCC(N4CCC(N(C)S(C)(=O)=O)CC4)CC3)c2C)cc1F` [Example 294], the remaining activity at 10 µM turned out to be 16% and the Ki is 230 nM.

As for `CCc1ccc(CNc2ncnc(C(=O)N3CCC(N4CCC(N(C)S(C)(=O)=O)CC4)CC3)c2C)cc1` [Example 56], the remaining activity at 10 µM amounted to 8% and the inhibition constant (Ki) was 127 nM.

As for `Cc1c(NCc2ccc(Cl)c(Cl)c2)ncnc1C(=O)N1CCC(N2CCC(C(F)(F)F)CC2)CC1` [Example 184], the remaining activity at 10 µM was 30% and the affinity, expressed as Ki, was 908 nM.

In the case of `CO[C@@H]1COCC[C@@H]1NC1CCN(C(=O)c2ncnc(NC[C@H]3C[C@H](c4ccccc4)C3)c2C)CC1` [Example 275df], the affinity corresponds to a Ki of 15 nM.

Turning to `CC(=O)N1CCC[C@@H](NC2CCN(C(=O)c3ncnc(NCc4ccc(C(C)(C)C)cc4)c3C)CC2)C1` [Example 228gc], the Ki came out at 561 nM.

For the molecule `O=C(c1ncnc(NCc2cccc(-c3ccccc3)c2)c1Br)N1CCC(N2CCOCC2)CC1` [Example 277], the remaining activity at 10 µM came to 34% and the affinity, expressed as Ki, was 1380 nM.

Turning to `CNC(=O)C1CCN(C2CCN(C(=O)c3nc(C)nc(NCc4ccc(C(C)(C)C)cc4)c3C)CC2)CC1` [Example 248], the remaining activity at 10 µM amounted to 17%.

For the molecule `Cc1c(NCc2ccc(Cl)c(F)c2)ncnc1C(=O)N1CCC(N2CCCCC2)CC1` [Example 134], the remaining activity at 10 µM stood at 23% and the Ki came out at 399 nM.

As to `Cc1c(NCCOc2ccccc2)ncnc1C(=O)N1CCC(N2CCC(O)CC2)CC1` [Example 16], the remaining activity at 10 µM amounted to 40% and the Ki was 1900 nM.

Regarding `Cc1c(NCC2CCCC(c3ccccn3)C2)ncnc1C(=O)N1CCC(N2CCC(N(C)S(C)(=O)=O)CC2)CC1` (stereo not drawn) [Example 159n], the affinity, expressed as Ki, was 233 nM.

In the case of `Cc1c(NCc2ccc(C(C)(C)C)cc2)ncnc1C(=O)N1CCC(N2CCCCC2)C1` (stereo not drawn) [Example 250], the remaining activity at 10 µM stood at 32% and the affinity, expressed as Ki, was 1260 nM.

As to `Cc1c(NCc2ccc(C(C)(C)C)cc2)ncnc1C(=O)N1CCCN(C2CCCC2)CC1` [Example 286], the remaining activity at 10 µM was determined as 19% and the Ki turned out to be 965 nM.

For the molecule `Cc1c(/C=C/c2ccc(C(C)(C)C)cc2)ncnc1C(=O)N1CCC(N2CCOCC2)CC1` [Example 271], the remaining activity at 10 µM is 15% and the affinity corresponds to a Ki of 1610 nM.

As for `COC1COCCC1NC1CCN(C(=O)c2ncnc(NCc3ccc(C(C)(C)C)cc3)c2C)CC1` (stereo not drawn) [Example 228c], the remaining activity at 10 µM came out at 0% and affinity was put at a Ki of 29 nM.

Take `CO[C@@H]1COCC[C@@H]1NC1CCN(C(=O)c2nc(C)nc(NC[C@H]3C[C@@H](c4ccccc4)C3)c2C)CC1` [Example 275dc]: the Ki came out at 11 nM.

The molecule `Cc1ccc(C2CCC(CNc3nc(C)nc(C(=O)N4CCC(N5CCC(N(C)S(C)(=O)=O)CC5)CC4)c3C)O2)cc1` (stereo not drawn) [Example 159oa] displayed a Ki of 29 nM.

For the molecule `CNS(=O)(=O)C1CCN(C2CCN(C(=O)c3ncnc(NCc4ccc(Cl)c(Cl)c4)c3C)CC2)CC1` [Example 254], the remaining activity at 10 µM is 11% and the affinity corresponds to a Ki of 101 nM.

In the case of `Cc1c(NCc2ccc(C(C)(C)C)cc2)ncnc1C(=O)N1CCC(NC2CCOc3cccnc32)CC1` (stereo not drawn) [Example 228gi], the Ki was 1100 nM.

With `CCS(=O)(=O)N(C)C1CCN(C2CCN(C(=O)c3ncnc(NCc4ccc(C(C)(C)C)cc4)c3C)CC2)CC1` [Example 37], the remaining activity at 10 µM amounted to 4% and the Ki was 11 nM.

For the molecule `Cc1c(NCC2Cc3ccccc3C2)ncnc1C(=O)N1CCC(N2CCC(O)CC2)CC1` [Example 23], the remaining activity at 10 µM was 7% and the Ki worked out at 169 nM.

`Cc1c(NCc2ccc(C(C)(C)C)cc2)ncnc1C(=O)N1CCC(N(C)C2CCC(F)(F)CC2)CC1` [Example 275d]: the remaining activity at 10 µM was 10% and the Ki worked out at 318 nM.

For the molecule `Cc1c(OCc2ccc(C(C)(C)C)cc2)ncnc1C(=O)N1CCC(N2CCC(NS(C)(=O)=O)CC2)CC1` [Example 299], the remaining activity at 10 µM was 6% and the inhibition constant Ki stood at 70 nM.

Take `Cc1c(NCCc2ccc(Cl)c(Cl)c2)ncnc1C(=O)N1CCC(N2CCC(O)C2)CC1` (stereo not drawn) [Example 241]: the remaining activity at 10 µM stood at 21% and the Ki worked out at 522 nM.

Regarding `Cc1c(NCc2ccc(Cl)c(Cl)c2)ncnc1C(=O)N1CCC(N2Cc3ccccc3C2)CC1` [Example 183], the remaining activity at 10 µM amounted to 45% and the affinity, expressed as Ki, was 426 nM.

Regarding `Cc1c(NCCc2ccc(Cl)c(Cl)c2)ncnc1C(=O)N1CCC(N2CCC[C@H](NS(C)(=O)=O)C2)CC1` [Example 169], the remaining activity at 10 µM turned out to be 54% and the Ki came to 2290 nM.

Regarding `Cc1c(NCCc2cccc(Cl)c2)ncnc1C(=O)N1CCC(N2CCCCC2)CC1` [Example 139], the remaining activity at 10 µM was found to be 9% and the Ki worked out at 443 nM.

Consider `Cc1c(NCCc2ccc(Cl)c(Cl)c2)ncnc1C(=O)N1CCC(N2CCN(C(=O)C(C)C)CC2)CC1` [Example 284], for which the remaining activity at 10 µM was found to be 42% and the Ki amounted to 1510 nM.

On to `Cc1c(NCc2ccc(C(C)(C)C)cc2)ncnc1C(=O)N1CCC(N2CCc3ncc(C(F)(F)F)cc3C2)CC1` [Example 228gg], for which the inhibition constant (Ki) is 1030 nM.

For `Cc1c(NCc2ccc(C(C)(C)C)cc2)ncnc1C(=O)N1CCC(N2CCC(C(C)(C)C)CC2)CC1` [Example 200], the remaining activity at 10 µM stood at 5% and affinity was put at a Ki of 108 nM.

Take `Cc1c(NCCCc2ccccc2)ncnc1C(=O)N1CCC(N2CCC(O)CC2)CC1` [Example 17]: the remaining activity at 10 µM came out at 18% and the Ki is 302 nM.

For the molecule `Cc1c(NCC2CCC(c3ccc(Cl)cc3)O2)ncnc1C(=O)N1CCC(N2CCC(N(C)S(C)(=O)=O)CC2)CC1` (stereo not drawn) [Example 159ab], the Ki was 27 nM.

Turning to `Cc1nc(NCC2CCC(c3ccc(C)c(F)c3)O2)c(C)c(C(=O)N2CCC(N3CCC(N(C)S(C)(=O)=O)CC3)CC2)n1` (stereo not drawn) [Example 159ta], the Ki is 27 nM.

In the case of `CCc1c(NCc2cccc(-c3ccccc3)c2)ncnc1C(=O)N1CCC(N2CCOCC2)CC1` [Example 276], the remaining activity at 10 µM stood at 23% and the Ki stood at 1840 nM.

Take `Cc1c(NCC2CCCC(C)(C)C2)ncnc1C(=O)N1CCC(N2CCC(N(C)S(C)(=O)=O)CC2)CC1` (stereo not drawn) [Example 159h]: the Ki is 39 nM.

Take `Cc1c(NCc2ccc(F)c(Cl)c2)ncnc1C(=O)N1CCC(N2CCC(O)CC2)CC1` [Example 111]: the remaining activity at 10 µM was found to be 27% and the Ki was found to be 464 nM.

With `Cc1c(NCc2ccc(C(F)(F)F)cc2F)ncnc1C(=O)N1CCC(N2CCC(O)CC2)CC1` [Example 21], the remaining activity at 10 µM is 51% and the Ki came to 2660 nM.

As to `O=C(c1cc(NCc2ccc(-c3ccccc3)cc2)ncn1)N1CCC(N2CCCC(O)C2)CC1` (stereo not drawn) [Example 103], the remaining activity at 10 µM came out at 30% and the Ki was 1610 nM.

On to `CNC(=O)[C@H]1CCCN(C2CCN(C(=O)c3ncnc(NCCc4ccc(Cl)c(Cl)c4)c3C)CC2)C1` [Example 176], for which the remaining activity at 10 µM turned out to be 31% and affinity was put at a Ki of 648 nM.

Regarding `Cc1c(NCc2cc(F)cc(C(F)(F)F)c2)ncnc1C(=O)N1CCC(N2CCC(O)CC2)CC1` [Example 6], the remaining activity at 10 µM is 41% and the affinity, expressed as Ki, was 1930 nM.

Consider `Cc1c(NCc2ccc(C(F)(F)F)c(Cl)c2)ncnc1C(=O)N1CCC(N2CCOCC2)CC1` [Example 47], for which the remaining activity at 10 µM stood at 14% and the Ki was determined as 222 nM.

Regarding `Cc1c(NCc2ccc(C(C)(C)C)cc2)ncnc1C(=O)N1CCCN(C2CCOCC2)CC1` [Example 288], the remaining activity at 10 µM was determined as 13% and the Ki worked out at 738 nM.

Regarding `Cc1c(NCc2ccc(Cl)c(F)c2)ncnc1C(=O)N1CCC(N2CCOCC2)CC1` [Example 45], the remaining activity at 10 µM is 17% and the affinity corresponds to a Ki of 501 nM.
